Results reported in patent publication US20260001889A1, “COMPOSITIONS USEFUL FOR MODULATING SPLICING” (Skyhawk Therapeutics, Inc., priority 2022, published 2026).

Experiments:
[1] = system: ATXN3 transcripts containing exon 4; assay: ATXN3 Quantitative Splicing Assay (qPCR, E4E5 primers/probe); type: cell-based; details: Homo sapiens, SK-N-MC cells, compounds for 24 h
Summary of the method: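 Exon 4-containing ATXN3 transcripts are quantified by TaqMan qPCR (E4E5 primers/probe) on cell-lysate cDNA, with total ATXN3 from the E8E9 set. Source cells: human neuroblastoma SK-N-MC, exposed for 24 h to compound at 30 μM down to 0.6 nM.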

total ATXN3 protein = assay: ATXN3 Total Protein Assay (Mesoscale Discovery, SK-N-MC cells); type: cell-based, Human; details: incubation for 48 hours, MSD assay
Summary of the method: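 Readout: MSD electrochemiluminescence immunoassay of lysates, calibrated with recombinant ATXN3 and using mouse/rabbit anti-ATXN3 antibody pair. Cells (SK-N-MC, human) were exposed for 48 h to compound doses between 30 μM and 0.6 nM.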

ATXN3-HiBiT protein = assay: ATXN3 Total Protein Assay (Kelly-ATXN3-HiBiT luminescence); type: cell-based; details: Kelly-ATXN3-HiBiT cells, 48 h after addition of compound
Summary of the method: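 Endogenous ATXN3-HiBiT protein in knock-in Kelly neuroblastoma cells measured by lytic HiBiT luminescence 48 h post-compound (added 24 h after seeding 2000 cells/well). Values are fold changes relative to DMSO, with viability from a parallel CellTiter-Glo plate.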

IC50 [1] [nM] | IC50 (total ATXN3 protein) [nM] | EC50 (ATXN3-HiBiT protein) [nM] | Structure (SMILES)
101 to 500 | 501 to 5000 | 101 to 500 | Cc1c(C[C@@H](N)[C@H](C)F)oc2c(NCc3ccccc3)cc(Cl)nc12 [Compound 107, 2-[(2R,3S)-2-amino-3-fluorobutyl]-7-benzylamino-5-chloro-3-methyl-1-oxa-4-azaindene]
10000 to 40000 | 10000 to 40000 | 10000 to 40000 | N[C@@H](Cc1oc2c(NCc3cccs3)cc(Cl)nc2c1Br)[C@H]1CCOC1 (single isomer, unassigned) [Compound 215]
101 to 500 | 0.01 to 100 | 0.01 to 100 | [2H]C([2H])(Nc1cc(Cl)nc2c(Br)c(C[C@@H](N)CCOC(F)F)oc12)c1cccs1 [Compound 222, 2-[(S)-2-amino-4-difluoromethoxybutyl]-3-bromo-5-chloro-7-{[(2-thienyl)(^2H2)methyl]amino}-1-oxa-4-azaindene]
101 to 500 | 101 to 500 | 101 to 500 | N[C@H](Cc1oc2c(NCc3cccs3)cc(Cl)nc2c1Br)C(F)F [Compound 242, 2-[(R)-2-amino-3,3-difluoropropyl]-3-bromo-5-chloro-7-thenylamino-1-oxa-4-azaindene]
101 to 500 | 101 to 500 | 101 to 500 | COC[C@H](N)Cc1oc2c(NCc3nccs3)cc(Cl)nc2c1Cl [Compound 53, 2-[(R)-2-amino-3-methoxypropyl]-3,5-dichloro-7-{[(1,3-thiazol-2-yl)methyl]amino}-1-oxa-4-azaindene]
101 to 500 | 101 to 500 | 101 to 500 | C[C@H](N)C(F)(F)c1oc2c(NCc3cccs3)cc(Cl)nc2c1Cl [Compound 189, 2-[(S)-2-amino-1,1-difluoropropyl]-3,5-dichloro-7-thenylamino-1-oxa-4-azaindene]
101 to 500 | 101 to 500 | 501 to 5000 | N[C@H](Cc1oc2c(NCc3cccs3)cc(Cl)nc2c1Br)[C@H]1CCOC1 (single isomer, unassigned) [Compound 99]
101 to 500 | 101 to 500 | 101 to 500 | Cc1c(C[C@@H](N)[C@H](C)F)oc2c(NCc3cccs3)cc(C#N)nc12 [Compound 111, 2-[(2R,3S)-2-amino-3-fluorobutyl]-3-methyl-7-thenylamino-1-oxa-4-aza-5-indenecarbonitrile]
0.01 to 100 | 0.01 to 100 | 0.01 to 100 | COC[C@H](N)Cc1oc2c(NCc3cccs3)cc(Cl)nc2c1Cl [Compound 50, 2-[(R)-2-amino-3-methoxypropyl]-3,5-dichloro-7-thenylamino-1-oxa-4-azaindene]
501 to 5000 | 501 to 5000 | 501 to 5000 | N[C@H](Cc1oc2c(NCc3cccs3)cc(Cl)nc2c1Br)C1CC1 [Compound 134, 2-[(R)-2-amino-2-cyclopropylethyl]-3-bromo-5-chloro-7-thenylamino-1-oxa-4-azaindene]
501 to 5000 | 501 to 5000 | 501 to 5000 | C[C@H](F)[C@H](N)Cc1oc2c(NCc3cccs3)cc(Cl)nc2c1-c1ccoc1 [Compound 332, 2-[(2R,3S)-2-amino-3-fluorobutyl]-5-chloro-3-(3-furyl)-7-thenylamino-1-oxa-4-azaindene]
501 to 5000 | 5000 to 10000 | 10000 to 40000 | N[C@H](Cc1oc2c(NCc3cccs3)cc(Cl)nc2c1Br)[C@@H]1CCOC1 (single isomer, unassigned) [Compound 100]
101 to 500 | 0.01 to 100 | 0.01 to 100 | [2H][C@](N)(COC)Cc1oc2c(NCc3cccs3)cc(Cl)nc2c1Br [Compound 285, 2-[(R)-2-amino-3-methoxy(2-^2H)propyl]-3-bromo-5-chloro-7-thenylamino-1-oxa-4-azaindene]
501 to 5000 | 501 to 5000 | 501 to 5000 | C#Cc1cc(NCc2cccs2)c2oc(C[C@@H](N)C3CC(F)(F)C3)c(C#C)c2n1 [Compound 178, 2-[(R)-2-amino-2-(3,3-difluorocyclobutyl)ethyl]-3,5-diethynyl-7-thenylamino-1-oxa-4-azaindene]

Structure (SMILES) | IC50 [1] [nM] | IC50 (total ATXN3 protein) [nM] | EC50 (ATXN3-HiBiT protein) [nM]
C#Cc1c(C[C@H](C)N)oc2c(NCc3cccs3)cc(Cl)nc12 [Compound 63, 2-[(2S)-2-aminopropyl]-5-chloro-3-ethynyl-N-(thiophen-2-ylmethyl)furo[3,2-b]pyridin-7-amine] | 0.01 to 100 | 0.01 to 100 | 0.01 to 100
C=Cc1cc(NCc2cccs2)c2oc(C[C@H](C)N)c(Br)c2n1 [Compound 164, 2-[(S)-2-aminopropyl]-3-bromo-7-thenylamino-5-vinyl-1-oxa-4-azaindene] | 5000 to 10000 | 5000 to 10000 | 501 to 5000
C[C@H](N)Cc1oc2c(NCc3cccs3)cc(Cl)nc2c1-c1cscn1 [Compound 263, 2-[(S)-2-aminopropyl]-5-chloro-7-thenylamino-3-(1,3-thiazol-4-yl)-1-oxa-4-azaindene] | 501 to 5000 | 501 to 5000 | 501 to 5000
Cc1coc(-c2c(C[C@H](C)N)oc3c(NCc4cccs4)cc(Cl)nc23)n1 [Compound 321, 2-[(S)-2-aminopropyl]-5-chloro-3-(4-methyl-1,3-oxazol-2-yl)-7-thenylamino-1-oxa-4-azaindene] | 501 to 5000 | 501 to 5000 | 501 to 5000
C/C=C\c1c(C[C@H](C)N)oc2c(NCc3cccs3)cc(Cl)nc12 [Compound 254, 2-[(S)-2-aminopropyl]-3-[(Z)-1-propenyl]-5-chloro-7-thenylamino-1-oxa-4-azaindene] | 501 to 5000 | 501 to 5000 | 501 to 5000
C[C@H](N)Cc1oc2c(NCc3ccc(F)cc3)cc(Cl)nc2c1Br [Compound 338, 2-[(S)-2-aminopropyl]-3-bromo-5-chloro-7-{[(p-fluorophenyl)methyl]amino}-1-oxa-4-azaindene] | 501 to 5000 | 501 to 5000 | 501 to 5000
